Measurements published in patent US9493468B2, “Antifungal 5,6-dihydro-4H-pyrrolo[1,2-a][1,4]benzo-diazepines and 6H-pyrrolo[1,2-a][1,4]benzodiazepines substituted with heterocyclic derivatives” (Janssen Pharmaceutica NV, priority 2011, dated 2016).

How the values were obtained:
Assay type in all cases: cell-based
Trichophyton rubrum = assay: Antifungal activity in vitro, resazurin growth inhibition: Trichophyton rubrum (B68183)
Description: (§1) The standard susceptibility screen is performed in 96-well plates (U-bottom, Greiner Bio-One). Serial dilutions (2-fold or 4-fold) of 20 mM compound stock solutions are made in 100% DMSO, followed by an intermediate dilution step in water. These serial dilutions (10 μl) are then spotted onto test-plates that can be stored in the dark at 4° C. for a maximum period of 2 weeks. An adequate broad dose-range is included with 64 μM as the highest in-test concentration. The culture medium RPMI-1640 is supplemented with L-glutamine, 2% glucose and buffered with 3-(N-morpholino)-propanesulfonic acid (MOPS) at pH 7.0±0.1.
(§2) The different fungal species/isolates (Table 3a) are cryopreserved and 1/1000 diluted in medium just prior to use. A standard inoculum of 200 μl containing 10^3 colony-forming unit (cfu) is then added to each well. A positive control (100% growth=fungal culture without antifungal) and a negative control (0% growth ═RPMI-MOPS medium) are included on each plate. Optimal incubation time and temperature are dependent on the fungal species and vary from 24 h for yeasts (37° C.) to one week or more for dermatophytes (27° C.). Inhibition of fungal growth is measured after adding 10 μl of 0.005% (w/v) resazurin (Sigma Aldrich) to each well, based on the principle that living cells convert the non-fluorescent blue resazurin into the pink and fluorescent resorufin, allowing fluorimetric reading (λex 550 nm and λem 590 nm) after an additional incubation period (‘resa’ time mentioned in Table 3a).

Cryptococcus neoformans = assay: Antifungal activity in vitro, resazurin growth inhibition: Cryptococcus neoformans (B66663)
Description: as §1, §2

Candida parapsilosis = assay: Antifungal activity in vitro, resazurin growth inhibition: Candida parapsilosis (B66126)
Description: as §1, §2

Aspergillus fumigatus = assay: Antifungal activity in vitro, resazurin growth inhibition: Aspergillus fumigatus (B42928)
Description: as §1, §2

Sporothrix schenkii = assay: Antifungal activity in vitro, resazurin growth inhibition: Sporothrix schenkii (B62482)
Description: as §1, §2

Microsporum canis = assay: Antifungal activity in vitro, resazurin growth inhibition: Microsporum canis (B68128)
Description: as §1, §2

[1] = system: Trichophyton mentagrophytes; assay: Antifungal activity in vitro, resazurin growth inhibition: Trichophyton mentagrophytes (B70554)
Description: as §1, §2

Structure (SMILES)	Inf. C: Trichophyton rubrum B68183, pIC50 (Trichophyton rubrum)	Inf. F: Cryptococcus neoformans B66663, pIC50 (Cryptococcus neoformans)	Inf. D: Candida parapsilosis B66126, pIC50 (Candida parapsilosis)	Inf. E: Aspergillus fumigatus B42928, pIC50 (Aspergillus fumigatus)	Inf. A: Sporothrix schenkii B62482, pIC50 (Sporothrix schenkii)	Inf. B: Microsporum canis B68128, pIC50 (Microsporum canis)	Inf. G: Trichophyton mentagrophytes B70554, pIC50 [1]
Br.CCn1ccc(C2NCc3c(Cl)cccc3-n3cccc32)n1 (racemic) [Compound 10]	<4.19	<4.19	<4.19	<4.19	<4.19	4.25	<4.19
Clc1cccc2c1CNC(c1ccccn1)c1cccn1-2 (racemic) [Compound 11]	4.71	4.93	<4.19	4.31	4.49	4.73	4.72
Cc1cccc(C2NCc3c(Cl)cccc3-n3cccc32)n1 (racemic) [Compound 12]	4.92	4.82	<4.49	<4.49	4.59	<4.49	<4.49
CCc1ccc(C2NCc3c(Cl)cccc3-n3cccc32)nc1.Cl (racemic) [Compound 13]	5.70	4.52	<4.19	<4.19	<4.19	5.40	5.00
CCc1ccc(C2NCc3c(Cl)cccc3-n3cccc32)cn1.Cl (racemic) [Compound 14]	5.30	4.28	<4.19	<4.19	<4.19	5.30	4.74
Cl.FC(F)(F)c1ccc(C2NCc3ccccc3-n3cccc32)cn1 (racemic) [Compound 15]	4.70	4.92	<4.19	<4.19	<4.19	4.25	4.56
Cl.FC(F)(F)c1ccc(C2NCc3c(Cl)cccc3-n3cccc32)cn1 (racemic) [Compound 16]	5.69	4.64	<4.19	<4.19	<4.19	5.19	5.28
Cl.Fc1cccc2c1CNC(c1ccc(C(F)(F)F)nc1)c1cccn1-2 (racemic) [Compound 17]	4.71	4.23	<4.19	<4.19	<4.19	4.46	<4.19
Cc1cccc2c1CNC(c1ccc(C(F)(F)F)nc1)c1cccn1-2.Cl (racemic) [Compound 18]	5.52	<4.19	<4.19	<4.19	<4.19	5.05	4.62
Cl.FC(F)(F)c1ccc(C2NCc3c(Cl)cc(Cl)cc3-n3cccc32)cn1 (racemic) [Compound 19]	5.65	5.02	<4.19	<4.19	<4.19	4.95	4.57
Br.Clc1cccc2c1CNC(c1ccncc1)c1cccn1-2 (racemic) [Compound 21]	5.52	4.66	<4.19	<4.19	4.70	5.04	
Br.Clc1ccc2c(c1)CNC(c1ccncc1)c1cccn1-2 (racemic) [Compound 22]	5.10	4.32	<4.19	<4.19	<4.19	5.22	
Br.Clc1ccc2c(c1)-n1cccc1C(c1ccncc1)NC2 (racemic) [Compound 23]	5.00	4.57	<4.19	<4.19	<4.19	4.72	4.39
Br.Clc1cccc2c1-n1cccc1C(c1ccncc1)NC2 (racemic) [Compound 24]	4.74	<4.19	<4.19	<4.19	<4.19	4.57	<4.19
Cc1ncc(C2NCc3c(Cl)cccc3-n3cccc32)cn1.Cl (racemic) [Compound 25]	4.19	<4.19	<4.19	<4.19	<4.19	4.43	<4.19
Cl.FC(F)(F)c1ncc(C2NCc3c(Cl)cccc3-n3cccc32)cn1 (racemic) [Compound 26]	5.10	<4.19	<4.19	<4.19	<4.19	4.92	4.44
Cc1ccc(Cl)c2c1-n1cccc1C(c1cnc(C(F)(F)F)nc1)NC2.Cl (racemic) [Compound 27]	<4.90	<4.90	<4.90	<4.90	<4.90	<4.90	<4.90
Clc1cccc2c1CN=C(c1ccc3nc[nH]c3c1)c1cccn1-2 [Compound 205]	<4	<4	<4	<4	<4		<4
